Measured values from patent US9403806B1, “Cognition enhancing compounds and compositions, methods of making, and methods of treating” (NeuroSolis, Inc., priority 2010, dated 2016).

Key:
[1] = Blood and brain concentrations (rats), oral gavage; type: in vivo, Long-Evans Hooded rats; settings: rat, 10 mg/kg po, 1 hr, relative to MCD-386 = 1.00
Procedure: Long-Evans Hooded rats (Charles River: male, 250-350 g) were dosed with solutions of test compounds in PBS by oral gavage. At the desired time after dosing, the animals were anesthetized with isoflurane, and then euthanized by cervical dislocation. Blood was obtained by cardiac puncture, transferred to a 1.5 mL microcentrifuge tube containing 15U Heparin, and the plasma recovered after centrifugation. Brains were dissected, weighed, immediately chilled to 4° C., and homogenized using a PowerGen 125 homogenizer in five volumes of ice-cold 2% formic acid. Proteins were precipitated from plasma and brain homogenate with two and five volumes respectively of ice-cold 2% formic acid and clarified by centrifugation. The supernatant was ultra-filtered by centrifugation through a 3K MWCO spin column (Pall Life Sciences), following the manufacturer's instructions. The concentration of compound in the ultra-filtrate was subjected to reverse-phase liquid chromatography using a 150×2.1 mm Agilent C8 reverse-phase column on a Shimadzu Prominence LC, eluting the compounds with a gradient of 2% to 50% of acetonitrile+0.1% formic acid for compound MI-50,382, or an isocratic flow of 2% acetonitrile+0.1% formic acid for the rest of the compounds listed. The concentration of the compound in the column effluent was measured using an Applied Biosystems API-3200 triple quadrupole mass spectrometer equipped with an electrospray sample injection system. The counts of the characteristic parent and product ions of each test compound were converted to concentration units by comparison with a standard calibration curve.

[2] = tested on: hippocampal inositol phosphate; assay: In vivo tissue inositol phosphate signaling pathway activation, hippocampus; parameters: species or system Long Evans Hooded rats; settings: rats, 30 mg/kg sc (FIG. 10B)
Procedure: Experimental compounds or drug substances were administered using standard techniques to Long Evans Hooded rats weighing 225 to 350 grams, and which had been pretreated with a subcutaneous injection of lithium chloride at a suitable dose between 3 and 10 mmoles per kg. At suitable times the animals were briefly anesthetized using 5% isoflurane and euthanized by decapitation. The brains and submaxillary salivary glands were rapidly dissected out, and the hippocampuses were dissected from the brains. The dissected tissues were homogenized in a suitable volume of ice-cold phosphate-buffered saline containing 10 mM lithium chloride, pH7.4, using a tissue homogenizer, and used immediately or frozen in aliquots at −80 deg C. for future use. The concentration of inositol-1-phosphate was determined in the homogenates using the IPOne TR-FRET assay (CisBio cat no 621PAPEB), following the manufacturer's instruction

[3] = Metabolites in serum and urine of dosed rats (LC-MS); type: in vivo; settings: rat serum or urine, 10 mg/kg po
Procedure: Oxadiazoles disclosed herein as well as other oxadiazoles were investigated to determine the formation of metabolites. Animals were dosed, blood taken, serum prepared, serum proteins precipitated and ultrafiltrates prepared as described in Example 6. In separate experiments, urine was collected from rats for 16-24 hours after dosing, using standard metabolic cages. The urine container and collected urine were maintained at 4° C. Urine was lyophilized, taken back into water. The uftrafiltrate was prepared by adding formic acid to a final concentration of 1% to the urine samples, then filtered through a 0.2 um nylon membrane. The ultrafiltrate was subjected to LC-MS analysis. Instead of measuring the product ions in Q3, manual Q1 scans of the liquid chromatograph were undertaken, seeking parent ions of potential metabolites of the compounds. The criteria for identifying metabolites were as follows: (1) the ion should be present in the sera or urines of dosed rats, but not in sera or urines from non-dosed rats (2) the ion should be identifiable as a metabolic derivative of the dosed compound (e.g. loss of a functional chemical moiety, addition of a hydroxyl group or a glucuronic acid moiety, etc). Metabolites were determined not to be present if no compound meeting the above criteria could be detected in serum or urine.

[4] = Serum pharmacokinetics of immediate release capsules in healthy volunteers; type: in vivo, human; settings: 5 mg dose cohort, 6 subjects
Procedure: The hydrochloride salt of MCD-386 (“MCD-386 HCl”) was formulated with the following excipients and loaded into #3 hard gelatin capsules (5 mg dose) or #2 hard gelatin capsules (0.2 mg dose).
A single 5 mg capsule or 5×0.2 mg capsules (1 mg total dose) were administered orally to healthy male volunteer human subjects with 125 ml of water. Six such subjects receiving the 5 mg dose, and a different 6 subjects received the 1 mg dose.
Venous blood samples were drawn at various intervals after dosing from each subject into standard tubes for bioanalytical and pharmacokinetic analysis. The blood was allowed to clot, and the serum separated, using common clinical laboratory techniques. Serum samples were stored at −20 deg C. until used for analysis.
MCD-386 HCl, which exists in serum principally as the protonated form of MCD-386, was assayed in clinical serum samples as follows. […] The MS/MS transitions monitored were 181.1 m/z to 111.0 m/z for MCD-386 HCl and 186.1 m/z to 111.1 m/z for the internal standard, D5-MCD-386 HCl. […] The lower limit of quantitation (LLOQ) was 0.100 ng MCD-386 HCl per mL of serum. MCD-386 HCl concentrations are expressed as free base. […]
The bioanalytical results were analyzed using Win Nonlin software and common pharmacokinetic methods known to those skilled in the art.

Compound: CCc1noc(C2CN=CNC2)n1 (stereo not shown) [MCD-386, 3-ethyl-5-(1,4,5,6-tetrahydropyrimidin-5-yl)-1,2,4-oxadiazole]
- Brain Cmax (10 mg/kg po) 1 hr MCD-386 = 1.00 [1]: 1.00
- increase in the concentration of IP in the hippocampus [2]: 71%
- Presence of metabolites (10 mg/kg po) [3]: Yes
- main metabolite in serum samples [4]: identified in the serum samples of five out of six subjects
